Where a SMILES comes first, the peptide text is derived from it. [ ]: non-standard residue; d: D form.
Tested on: aortic rings pre-contracted with phenylephrine
Design: species or system Wistar Kyoto rats
Procedure: Ten-week-old male Wistar Kyoto rats were anesthetized with ketamine (35 mg/kg) and xylazine (7 mg/kg) administered intraperitoneally. The aortas were removed, dissected from the extravascular connective tissue, and cut into 3 mm long rings in fresh Krebs buffer pH 7.4 (KRB, 120 mM NaCl, 25 mM NaHCO3, 5 mM glucose, 4.8 mM KCI, 2.5 mM CaCl2, 1.2 mM MgSO4, […], and 1.2 mM KH2PO4) freshly bubbled with 5% CO2 in air. They were then mounted on a wire myograph (DMT 620M) and placed in an organ bath with KRB, pH 7.4 at 37°C with constant bubbling and equilibrated for 30 min at a tension of 1.5 g. The vasodilator response of ^DH^DF^DP^DH^DI^DY^DV^DR^DD^LD^LR^LV^LY^LI^LH^LP (SEQ ID NO: 1), which corresponds to a fusion of the angiotensin-(1-9) retro-enantio peptide (D-amino acids, N-terminal to C-terminal direction: ^DH^DF^DP^DH^DI^DY^DV^DR^DD (SEQ ID NO: 2)) and the angiotensin-(1-7) peptide (L-amino acids, N-terminal to C-terminal direction: ^LD^LR^LV^LY^LI^LH^LP (SEQ ID NO: 3) were evaluated in dose-response curves [10^-18 to 10^-4 M] to these molecules in baths with aortic rings pre-contracted with phenylephrine 10^-7 M. Carbacol (10^-6-10^-4 M) was used as a relaxation control. The peptides were added in cumulative concentrations to the baths when the vasoconstrictor response to phenylephrine reached its maximum level. […]

| EC50 | Compound |
| --- | --- |
| 5.09 pM | CC[C@@H](C)[C@@H](NC(=O)[C@@H](Cc1c[nH]cn1)NC(=O)[C@H]1CCCN1C(=O)[C@@H](Cc1ccccc1)NC(=O)[C@H](N)Cc1c[nH]cn1)C(=O)N[C@H](Cc1ccc(O)cc1)C(=O)N[C@@H](C(=O)N[C@H](CCCNC(=N)N)C(=O)N[C@H](CC(=O)O)C(=O)N[C@@H](CC(=O)O)C(=O)N[C@@H](CCCNC(=N)N)C(=O)N[C@H](C(=O)N[C@@H](Cc1ccc(O)cc1)C(=O)N[C@H](C(=O)N[C@@H](Cc1c[nH]cn1)C(=O)N1CCC[C@H]1C(=O)O)[C@@H](C)CC)C(C)C)C(C)C [HP16, ^DH^DF^DP^DH^DI^DY^DV^DR^DD^LD^LR^LV^LY^LI^LH^LP] |
| 76.7 pM | CC[C@@H](C)[C@@H](NC(=O)[C@@H](Cc1c[nH]cn1)NC(=O)[C@H]1CCCN1C(=O)[C@@H](Cc1ccccc1)NC(=O)[C@H](N)Cc1c[nH]cn1)C(=O)N[C@H](Cc1ccc(O)cc1)C(=O)N[C@@H](C(=O)N[C@H](CCCNC(=N)N)C(=O)N[C@H](CC(=O)O)C(=O)O)C(C)C [RI-Ang-(1-9), ^DH^DF^DP^DH^DI^DY^DV^DR^DD] (H-[dH][dF][dP][dH][dI][dY][dV][dR][dD]-OH) |

Reference: EP4775589A1, “PHARMACEUTICAL COMPOSITION COMPRISING A PEPTIDE OR A COMBINATION OF PEPTIDES AGONISTIC TO THE MAS, AT1 AND AT2 RECEPTORS” (Pontificia Universidad Católica de Chile, priority 2023, dated 2025)
